Assays:
Assay type in all cases: biochemical
cellulase [1] = assay: Viscosity of guar fluid with cellulase and deactivator at 22° C. (Examples 3-7); conditions: 200 ppm cellulase; for degradation of the guar: 22° C. (FIG. 4)
Procedure: (§1) The following example formulations were prepared by adding a desired amount of cellulase and then a deactivator to water. The polymer was hydrated in the mixed water with a Waring blender mixing at 1000-3000 rpm for 15 mins.
The viscosities of Formulations 1-6 were measured immediately after mixing. To measure the viscosity of the solutions, 12 mL samples were loaded into a rheometer cup in a Bohlin rheometer with a C25 configuration.
The viscosities of Formulations 1-4 were measured immediately after mixing. To measure the viscosity of the solutions, 12 mL samples were loaded into a rheometer cup in a Bohlin rheometer with a C25 configuration.
The viscosities of Formulations 1-5 were measured immediately after mixing. To measure the viscosity of the solutions, 12 mL samples were loaded into a rheometer cup in a Bohlin rheometer with a C25 configuration.

[2] = test system: bacterial and/or fungal cells; assay: Viscosity of guar in water containing 11,000,000 CFU bacterial and/or fungal cells (Example 2); conditions: 0.4 g/L deactivator, 3.6 g/L guar
Procedure: Formulation 2 was prepared by adding 3.6 g/L guar to water containing 11,000,000 CFU bacterial and/or fungal cells.
Formulation 3 was prepared by adding 0.4 g/L of tannic acid to Formulation 2.
(§2) The viscosities of Formulations 1-3 were measured immediately after mixing. To measure the viscosity of the solutions, 12 mL samples were loaded into a rheometer cup in a Bohlin rheometer with a C25 configuration.

cellulase [3] = assay: Viscosity of xanthan fluid with cellulase and deactivator at 22° C. (Example 8); conditions: 0.6 g/L deactivator, 200 ppm cellulase, 3.6 g/L xanthan
Procedure: as §1
Formulation 3 was prepared by adding 200 ppm cellulase, 0.6 g/L of 1,5-dihydroxynaphthalene, and 3.6 g/L xanthan to tap water.
as §2

cellulase [4] = assay: Viscosity of guar solution with cellulase and deactivator over time at 50° C. and 80° C. (Example 1); conditions: 200 ppm cellulase, 3.6 g/L guar
Procedure: as §1
Formulation 3 was prepared by adding 200 ppm cellulase and 0.6 g/L of 1,5-dihydroxynaphthalene from Sigma Aldrich to tap water. Then 3.6 g/L guar was added to the fluid.
Formulation 4 was prepared by adding 200 ppm cellulase and 0.24 g/L of 1,5-dihydroxynaphthalene from Sigma Aldrich to tap water. Then 3.6 g/L guar was added to the fluid.
To measure the viscosity of the solutions, 12 mL samples were loaded into a rheometer cup in a Bohlin rheometer with a C25 configuration. The rheology tests were performed at a shear rate of 10 s^−1 and temperatures of 50° C. and 80° C., the results of which are shown in FIG. 1 and FIG. 2, respectively.

cellulase [5] = assay: Viscosity of carboxymethyl cellulose fluid with cellulase and deactivator at 22° C. (Example 9); conditions: 0.6 g/L deactivator, 200 ppm cellulase, 3.6 g/L carboxymethyl cellulose
Procedure: as §1
Formulation 3 was prepared by adding 200 ppm cellulase, 0.6 g/L of 1,5-dihydroxynaphthalene, and 3.6 g/L carboxymethyl cellulose to tap water.
as §2

SMILES: COc1cccc(OC)c1OC [1,2,3-trimethoxybenzene]
- degradation of the biomaterial (cellulase [1]; 0.6 g/L 1,2,3-trimethoxybenzene, 3.6 g/L guar, 22° C. (FIG. 8)): impeded
- viscosity compared with Formulation 1 (no cellulase) (cellulase [1]; 0.6 g/L 1,2,3-trimethoxybenzene, 3.6 g/L guar, shear rate 1, 10, 100 s^-1, 22° C. (FIG. 8)): similar

SMILES: O=C(OC[C@H]1O[C@@H](OC(=O)c2cc(O)c(O)c(OC(=O)c3cc(O)c(O)c(O)c3)c2)[C@H](OC(=O)c2cc(O)c(O)c(OC(=O)c3cc(O)c(O)c(O)c3)c2)[C@@H](OC(=O)c2cc(O)c(O)c(OC(=O)c3cc(O)c(O)c(O)c3)c2)[C@@H]1OC(=O)c1cc(O)c(O)c(OC(=O)c2cc(O)c(O)c(O)c2)c1)c1cc(O)c(O)c(OC(=O)c2cc(O)c(O)c(O)c2)c1 [tannic acid]
- degradation of the guar biomaterial by the enzyme ([2]; water with 11,000,000 CFU bacterial and/or fungal cells, 22° C. (FIG. 3)): inhibited
- viscosity compared with Formulation 1 (guar in tap water) ([2]; water with 11,000,000 CFU cells, shear rate 1, 10, 100 s^-1, 22° C. (FIG. 3)): similar
- degradation of the biomaterial by the cellulase enzymes (cellulase [1]; 0.4 g/L deactivator, 3.6 g/L guar, 22° C. (FIG. 5)): impeded
- viscosity compared with Formulation 1 (no cellulase) (cellulase [1]; 0.4 g/L deactivator, 3.6 g/L guar, shear rate 1, 10, 100 s^-1, 22° C. (FIG. 5)): similar

SMILES: Oc1cccc2c(O)cccc12 [1,5-dihydroxynaphthalene]
- degradation of the biomaterial (cellulase [1]; 0.6 g/L deactivator, 3.6 g/L guar, 22° C. (FIG. 6)): impeded
- viscosity compared with Formulation 1 (no cellulase) (cellulase [1]; 0.6 g/L deactivator, 3.6 g/L guar, shear rate 1, 10, 100 s^-1, 22° C. (FIG. 6)): similar
- degradation of the biomaterial (cellulase [3]; 22° C. (FIG. 9)): impeded
- viscosity compared with Formulation 1 (no cellulase) (cellulase [3]; shear rate 1, 10, 100 s^-1, 22° C. (FIG. 9)): similar
- degradation rate of the cellulase enzymes (cellulase [4]; 0.6 g/L deactivator, tap water, shear rate 10 s^-1, 50° C. and 80° C. (FIG. 1, 2)): reduced
- dependence of viscosity reduction on deactivator concentration (cellulase [4]; 0.6 g/L vs 0.24 g/L deactivator, 50° C. (FIG. 1)): the slower the viscosity was reduced
- viscosity compared with the formulation without deactivator (cellulase [4]; 50° C., shear rate 10 s^-1 (FIG. 1)): higher
- viscosity compared with the formulation without deactivator (cellulase [4]; 80° C., shear rate 10 s^-1 (FIG. 2)): higher
- degradation of the biomaterial (cellulase [5]; 22° C. (FIG. 10)): impeded
- viscosity compared with Formulation 1 (no cellulase) (cellulase [5]; shear rate 1, 10, 100 s^-1, 22° C. (FIG. 10)): similar

SMILES: Oc1cccc2cccc(O)c12 [1,8-dihydroxynaphthalene]
- degradation of the biomaterial (cellulase [1]; 0.12 g/L deactivator, 3.6 g/L guar, 22° C. (FIG. 6)): impeded
- viscosity compared with Formulation 1 (no cellulase) (cellulase [1]; 0.12 g/L deactivator, 3.6 g/L guar, shear rate 1, 10, 100 s^-1, 22° C. (FIG. 6)): similar

SMILES: COc1cc(OC)cc(OC)c1 [1,3,5-trimethoxybenzene]
- degradation of the biomaterial (cellulase [1]; 0.6 g/L 1,3,5-trimethoxybenzene, 3.6 g/L guar, 22° C. (FIG. 8)): impeded
- viscosity compared with Formulation 1 (no cellulase) (cellulase [1]; 0.6 g/L 1,3,5-trimethoxybenzene, 3.6 g/L guar, shear rate 1, 10, 100 s^-1, 22° C. (FIG. 8)): similar

SMILES: Oc1ccc2c(c1)OCO2 [sesamol]
- degradation of the biomaterial (cellulase [1]; 0.36 g/L deactivator, 3.6 g/L guar, 22° C. (FIG. 7)): impeded
- viscosity compared with Formulation 1 (no cellulase) (cellulase [1]; 0.36 g/L deactivator, 3.6 g/L guar, shear rate 1, 10, 100 s^-1, 22° C. (FIG. 7)): similar

SMILES: Nc1cccc2c(O)cccc12 [5-amino-1-naphthol]
- degradation of the biomaterial (cellulase [1]; 0.96 g/L deactivator, 3.6 g/L guar, 22° C. (FIG. 7)): impeded
- viscosity compared with Formulation 1 (no cellulase) (cellulase [1]; 0.96 g/L deactivator, 3.6 g/L guar, shear rate 1, 10, 100 s^-1, 22° C. (FIG. 7)): similar

SMILES: Oc1cc2ccccc2cc1O [2,3-dihydroxynaphthalene]
- degradation of the biomaterial (cellulase [1]; 0.36 g/L deactivator, 3.6 g/L guar, 22° C. (FIG. 6)): impeded
- viscosity compared with Formulation 1 (no cellulase) (cellulase [1]; 0.36 g/L deactivator, 3.6 g/L guar, shear rate 1, 10, 100 s^-1, 22° C. (FIG. 6)): similar

SMILES: COc1ccccc1O [guaiacol]
- degradation of the guar (cellulase [1]; 8 mL/L deactivator, 6 g/L guar): impeded
- viscosity compared with Formulation 1 (no cellulase) (cellulase [1]; 8 mL/L deactivator, 6 g/L guar, shear rate 1, 10, 100 s^-1, 22° C. (FIG. 4)): similar

SMILES: O=C(O)c1cc(O)c(O)c(O)c1 [gallic acid]
- degradation of the guar (cellulase [1]; 8 mL/L gallic acid, 3.6 g/L guar): impeded
- viscosity compared with Formulation 1 (no cellulase) (cellulase [1]; 8 mL/L gallic acid, 3.6 g/L guar, shear rate 1, 10, 100 s^-1, 22° C. (FIG. 4)): similar

SMILES: COc1cc(C(=O)O)ccc1O [vanillic acid]
- degradation of the guar (cellulase [1]; 0.96 g/L deactivator, 3.6 g/L guar): impeded
- viscosity compared with Formulation 1 (no cellulase) (cellulase [1]; 0.96 g/L deactivator, 3.6 g/L guar, shear rate 1, 10, 100 s^-1, 22° C. (FIG. 4)): similar

SMILES: O=C(O)c1ccccc1O [salicylic acid]
- degradation of the guar (cellulase [1]; 8 mL/L salicylic acid, 3.6 g/L guar): impeded
- viscosity compared with Formulation 1 (no cellulase) (cellulase [1]; 8 mL/L salicylic acid, 3.6 g/L guar, shear rate 1, 10, 100 s^-1, 22° C. (FIG. 4)): similar
